# “And” between values parts separate entries of the source, which are not always exact repeats. Equal entries are not always repeated.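 Protocol summary: plate cells (96-well), add compound at 5 concentrations, incubate 48 h, interpolate endpoints linearly. GI50 is the concentration that inhibits growth by half. TGI marks complete inhibition of growth.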
# Legend:
# Assay in all cases: NCI anticancer screen, dose series, 48 h
# HCC-2998 colon = system: HCC-2998 colon
# SK-OV-3 ovarian = system: SK-OV-3 ovarian
# M14 melanoma = system: M14 melanoma
# HT29 colon = system: HT29 colon
# NCI/ADR-RES ovarian = system: NCI/ADR-RES ovarian
# RXF 393 renal = system: RXF 393 renal
# UACC-257 melanoma = system: UACC-257 melanoma
# PC-3 prostate = system: PC-3 prostate
# NCI-H226 lung = system: NCI-H226 lung
# IGROV1 ovarian = system: IGROV1 ovarian
Structure (SMILES),GI50 (HCC-2998 colon),TGI (HCC-2998 colon),GI50 (SK-OV-3 ovarian),TGI (SK-OV-3 ovarian),GI50 (M14 melanoma),TGI (M14 melanoma),TGI (HT29 colon),TGI (NCI/ADR-RES ovarian),GI50 (RXF 393 renal),TGI (RXF 393 renal),GI50 (UACC-257 melanoma),TGI (UACC-257 melanoma),GI50 (PC-3 prostate),TGI (PC-3 prostate),GI50 (NCI-H226 lung),TGI (NCI-H226 lung),GI50 (IGROV1 ovarian),TGI (IGROV1 ovarian),GI50 (HT29 colon),GI50 (NCI/ADR-RES ovarian)
C=C1COC(O)(C2OCOC(C3CC(=O)NC(=O)C3)C2O)C1C (centres undefined),0.00218 µM,0.0174 µM and 0.0244 µM,0.00429 µM,0.052 µM,0.00323 µM,0.017 µM and 0.0232 µM,0.0207 µM and 0.0511 µM,0.163 µM,0.00134 µM,0.00759 µM and 0.0177 µM and 0.0104 µM,0.004 µM and 0.0126 µM,0.0278 µM and 0.0453 µM,0.00629 µM,0.0501 µM,0.00356 µM,0.019 µM and 0.0216 µM,0.00383 µM and 0.0166 µM,0.0442 µM and 0.0773 µM,,
O=C(O)C1C2C=CC(C2)C1C(=O)O (centres undefined),> 100 µM,> 100 µM,> 100 µM,> 100 µM,> 100 µM,> 100 µM,> 100 µM,> 100 µM,> 100 µM,> 100 µM,> 100 µM,> 100 µM,> 100 µM,> 100 µM,> 100 µM,> 100 µM,> 100 µM,> 100 µM,> 100 µM,> 100 µM
CCC(C)[C@H](NC(=O)NC(=O)NC(=O)CI)C(=O)OC (some centres undefined),13.7 µM,26.9 µM,17.2 µM,31.4 µM,2.47 µM,6.8 µM,3.59 µM,60 µM,4.51 µM,15.2 µM,12.6 µM,25.8 µM,12.2 µM,26.7 µM,3.84 µM,19.1 µM,3.47 µM,12.1 µM,1.92 µM,21.2 µM
CC1=C(C(=O)Nc2ccc3[nH]ncc3c2)C(c2ccc(Cl)c(Cl)c2)CC(=O)N1 (centres undefined),> 25 µM,> 25 µM,> 25 µM,> 25 µM,> 25 µM,> 25 µM,> 25 µM,> 25 µM,8.2 µM,> 25 µM,> 25 µM,> 25 µM,> 20.4 µM,> 25 µM,6.09 µM,> 25 µM,12.8 µM,> 25 µM,24.6 µM,> 25 µM
COc1cc2oc(-c3ccc(O)cc3O)c(CC=C(C)C)c(=O)c2c(O)c1/C=C/C(C)C,,4.6 µM,,20.6 µM,,3.56 µM,5.74 µM,8.24 µM,,4.61 µM,,17.5 µM,,8.2 µM,,9.98 µM,,12 µM,,
CC(=O)c1ccc(Nc2nc(Nc3ccc(F)cc3)nc(Nc3ccc(F)cc3)n2)cc1,9.95 µM,> 100 µM,10.5 µM,83.6 µM,6.52 µM,> 100 µM,> 100 µM,54.1 µM,3.15 µM,11.5 µM,14.3 µM,> 100 µM,8.89 µM,> 100 µM,20.7 µM,> 100 µM,9.49 µM,28.2 µM,5.79 µM,5.5 µM
CCCCCCCCCCCCCCCC(=O)N[C@H](/C=C/[C@H](O)CCCCCCCCCCCCC)CO,> 100 µM,> 100 µM,> 100 µM,> 100 µM,> 100 µM,> 100 µM,> 100 µM,> 100 µM,> 100 µM,> 100 µM,> 100 µM,> 100 µM,> 100 µM,> 100 µM,> 100 µM,> 100 µM,> 100 µM,> 100 µM,> 100 µM,> 100 µM
COc1cc(/C=C2\Oc3cc(OCCCN4CCCC4)ccc3C2=O)cc(OC)c1,3.91 µM,15 µM,12.9 µM,26.1 µM,1.83 µM,3.75 µM,8.69 µM,21.6 µM,3.02 µM,12.3 µM,4.54 µM,17 µM,4.52 µM,18.1 µM,13.8 µM,27 µM,4.4 µM,16.9 µM,2.8 µM,6.17 µM
C/C(=N\NC(=S)N1CCN(C2CCCCCC2)CC1)c1ccccn1,1.4 µM,3.3 µM and 2.08 µM,,2.96 µM,< 0.001 µM,2.85 µM and 1.2 µM,1.84 µM,0.676 µM,2.45 µM,2.5 µM,< 0.001 µM,1.21 µM,,2.07 µM,2.88 µM,2.7 µM,< 0.001 µM,3.7 µM,,
O=C1CCCCC=C1C[N+](=O)[O-],20.5 µM,43.6 µM,> 100 µM,> 100 µM,19.3 µM,45 µM,50.3 µM,> 100 µM,14.7 µM,35.2 µM,28.6 µM,> 100 µM,41.1 µM,> 100 µM,26 µM,73.3 µM,33 µM,> 100 µM,19.3 µM,36.3 µM
CCCCCc1cc[n+](CC(=O)c2ccc([N+](=O)[O-])cc2)cc1,4.94 µM,17.6 µM,13.1 µM,46.3 µM,7.03 µM,22.7 µM,8.32 µM,52.2 µM,24.3 µM,94.4 µM,2.28 µM,7.08 µM,4.14 µM,34.7 µM,6.73 µM,24.4 µM,10.1 µM,24.4 µM,2.39 µM,18.5 µM
Cc1cccc2nc3cccc(C(=O)NCCNCCNCCNC(=O)c4cccc5nc6cccc(C)c6nc45)c3nc12,0.0416 µM,0.837 µM,0.0933 µM,12.8 µM,< 0.0241 µM,1.7 µM,0.254 µM,> 100 µM,< 0.0149 µM,0.228 µM,0.0557 µM,1.76 µM,< 0.0164 µM,4.63 µM,< 0.0128 µM,0.274 µM,< 0.01 µM,> 39.3 µM,< 0.01 µM,0.296 µM
CNc1cc2nc3cc(NC)c(C)cc3cc2cc1C,1.6 µM,14.7 µM,0.695 µM,12.8 µM,2.24 µM,14.1 µM,1.1 µM,9.28 µM,1.09 µM,2.37 µM,6.83 µM,32.3 µM,1.07 µM,15.7 µM,0.81 µM,18.8 µM,0.562 µM,16.2 µM,0.3 µM,1.69 µM
